According to ChEMBL document CHEMBL1201862, “PubChem BioAssay data set” (2004):
Activity calls are given as the source filed them.

What was measured:
[1] = molecular target: Protein disulfide-isomerase (Homo sapiens, UniProt P07237); assay: inhibition of PDI-mediated insulin reduction – biochemical, turbidity, dry powder samples, set 2, confirmation (AID 652146)
[2] = molecular target: T1, Histone-lysine N-methyltransferase NSD2 (Homo sapiens, UniProt O96028); assay type: biochemical
T1 sequence (O96028 whole entry): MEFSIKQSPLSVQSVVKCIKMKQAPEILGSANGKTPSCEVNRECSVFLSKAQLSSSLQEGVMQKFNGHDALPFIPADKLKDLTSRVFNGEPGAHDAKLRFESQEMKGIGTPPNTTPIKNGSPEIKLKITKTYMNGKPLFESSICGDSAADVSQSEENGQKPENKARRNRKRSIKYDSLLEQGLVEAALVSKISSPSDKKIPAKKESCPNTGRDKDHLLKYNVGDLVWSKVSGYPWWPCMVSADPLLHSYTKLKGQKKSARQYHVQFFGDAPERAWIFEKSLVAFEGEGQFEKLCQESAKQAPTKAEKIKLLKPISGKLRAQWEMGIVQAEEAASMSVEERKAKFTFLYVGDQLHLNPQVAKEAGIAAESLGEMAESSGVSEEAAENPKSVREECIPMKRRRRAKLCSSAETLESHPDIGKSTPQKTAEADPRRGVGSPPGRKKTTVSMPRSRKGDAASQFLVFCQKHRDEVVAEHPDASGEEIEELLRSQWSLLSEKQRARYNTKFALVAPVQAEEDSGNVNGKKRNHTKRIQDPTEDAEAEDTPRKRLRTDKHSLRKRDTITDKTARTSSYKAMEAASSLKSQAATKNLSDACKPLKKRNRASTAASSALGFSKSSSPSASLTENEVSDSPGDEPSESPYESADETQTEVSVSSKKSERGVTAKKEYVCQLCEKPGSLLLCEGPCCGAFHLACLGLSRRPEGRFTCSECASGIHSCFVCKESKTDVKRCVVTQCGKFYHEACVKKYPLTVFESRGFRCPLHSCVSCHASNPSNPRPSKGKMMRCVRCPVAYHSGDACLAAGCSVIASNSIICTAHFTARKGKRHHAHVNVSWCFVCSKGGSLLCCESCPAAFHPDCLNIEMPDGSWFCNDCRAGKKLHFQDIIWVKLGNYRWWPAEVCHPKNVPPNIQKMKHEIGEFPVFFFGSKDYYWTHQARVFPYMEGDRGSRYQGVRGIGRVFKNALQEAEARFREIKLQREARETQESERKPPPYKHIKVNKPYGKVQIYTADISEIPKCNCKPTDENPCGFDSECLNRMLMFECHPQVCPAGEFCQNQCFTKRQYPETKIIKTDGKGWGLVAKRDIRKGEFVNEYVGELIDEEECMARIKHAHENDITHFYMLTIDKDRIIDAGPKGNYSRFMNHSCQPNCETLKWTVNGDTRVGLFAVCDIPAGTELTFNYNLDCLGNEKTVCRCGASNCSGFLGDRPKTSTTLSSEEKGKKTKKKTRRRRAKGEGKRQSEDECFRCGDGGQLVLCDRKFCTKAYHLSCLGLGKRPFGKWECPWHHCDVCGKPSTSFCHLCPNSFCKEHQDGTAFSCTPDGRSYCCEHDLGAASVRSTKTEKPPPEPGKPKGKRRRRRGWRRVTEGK

Hexokinase HKDC1 = molecular target: T2, Hexokinase HKDC1 (Homo sapiens, UniProt Q2TB90); assay: inhibition of HKDC1 glucose phosphorylation – biochemical, W721R variant, dose response (AID 504729); assay type: functional
T2 sequence (Q2TB90 whole entry): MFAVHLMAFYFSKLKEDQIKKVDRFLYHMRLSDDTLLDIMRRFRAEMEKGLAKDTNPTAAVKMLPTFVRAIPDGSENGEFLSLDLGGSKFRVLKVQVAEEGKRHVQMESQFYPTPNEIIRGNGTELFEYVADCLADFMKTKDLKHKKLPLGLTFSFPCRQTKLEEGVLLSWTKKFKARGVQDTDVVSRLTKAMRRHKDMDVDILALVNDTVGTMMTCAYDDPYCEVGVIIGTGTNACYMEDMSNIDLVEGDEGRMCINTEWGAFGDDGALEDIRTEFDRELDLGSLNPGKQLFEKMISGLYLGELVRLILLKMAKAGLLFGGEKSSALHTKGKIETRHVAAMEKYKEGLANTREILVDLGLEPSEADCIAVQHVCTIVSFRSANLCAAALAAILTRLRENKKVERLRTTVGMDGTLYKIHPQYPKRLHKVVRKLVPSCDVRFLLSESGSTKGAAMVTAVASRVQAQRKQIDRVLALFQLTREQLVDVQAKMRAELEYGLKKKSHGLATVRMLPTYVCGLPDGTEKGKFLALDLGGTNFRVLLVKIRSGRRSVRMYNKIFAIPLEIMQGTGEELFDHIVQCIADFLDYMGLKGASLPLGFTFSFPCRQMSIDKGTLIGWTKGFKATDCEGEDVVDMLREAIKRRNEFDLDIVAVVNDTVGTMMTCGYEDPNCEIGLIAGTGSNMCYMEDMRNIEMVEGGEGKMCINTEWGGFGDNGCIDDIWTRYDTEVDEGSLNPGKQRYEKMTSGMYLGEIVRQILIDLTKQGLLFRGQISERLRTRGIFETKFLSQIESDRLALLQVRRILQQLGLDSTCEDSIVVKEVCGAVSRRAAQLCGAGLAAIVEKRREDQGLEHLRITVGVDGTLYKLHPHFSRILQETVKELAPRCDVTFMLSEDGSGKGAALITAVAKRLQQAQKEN

Caspase-6 = molecular target: T3, Caspase-6 (Homo sapiens, UniProt P55212); assay: inhibition of CASP6 peptide cleavage – biochemical, VEID-R110 fluorescence, cherry-pick, dose response (AID 720632)
T3 sequence (P55212 whole entry): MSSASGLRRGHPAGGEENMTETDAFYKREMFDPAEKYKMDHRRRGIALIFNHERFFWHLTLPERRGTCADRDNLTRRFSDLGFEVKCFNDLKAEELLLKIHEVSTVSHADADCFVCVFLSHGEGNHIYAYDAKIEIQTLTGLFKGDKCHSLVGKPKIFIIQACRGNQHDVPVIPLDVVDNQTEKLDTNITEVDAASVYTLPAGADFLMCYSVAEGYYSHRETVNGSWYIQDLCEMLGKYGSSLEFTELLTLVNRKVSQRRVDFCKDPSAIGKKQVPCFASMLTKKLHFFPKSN

Vero = assay: viability of Vero cells under compound – cytotoxicity control for flavivirus capping enzyme inhibitors (AID 588742); assay type: functional; conditions: Chlorocebus sabaeus
[3] = molecular target: T4, Microphthalmia-associated transcription factor (Homo sapiens, UniProt O75030); assay: reducers of TRPM1 reporter luminescence, concentration series – cell-based, SK-MEL-5, cherry-picked, set 3, MITF inhibitor project, dose response (AID 493073); assay type: functional;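 note: SK-MEL-5 melanoma cells with luciferase driven by the MITF target TRPM1 promoter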
T4 sequence (O75030 whole entry): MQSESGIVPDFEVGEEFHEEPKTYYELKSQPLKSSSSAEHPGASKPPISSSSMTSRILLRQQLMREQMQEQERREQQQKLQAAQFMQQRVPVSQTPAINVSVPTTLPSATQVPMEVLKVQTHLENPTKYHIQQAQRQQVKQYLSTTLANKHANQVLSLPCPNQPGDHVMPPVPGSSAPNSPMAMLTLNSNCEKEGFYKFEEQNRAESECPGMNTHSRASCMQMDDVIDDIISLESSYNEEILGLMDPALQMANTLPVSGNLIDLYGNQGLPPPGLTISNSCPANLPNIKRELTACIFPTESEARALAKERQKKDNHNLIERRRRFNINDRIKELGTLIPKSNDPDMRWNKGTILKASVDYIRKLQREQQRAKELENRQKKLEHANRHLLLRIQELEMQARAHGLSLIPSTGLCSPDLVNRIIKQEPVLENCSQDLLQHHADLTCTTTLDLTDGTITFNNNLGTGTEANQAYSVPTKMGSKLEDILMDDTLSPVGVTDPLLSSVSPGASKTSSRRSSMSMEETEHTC

Genome polyprotein = Genome polyprotein (dengue virus type 2, UniProt P29990); assay: flavivirus cap methylation enzyme inhibition – biochemical, confirmation dose response, primary screen (AID 588689); assay type: functional
Sequence of Genome polyprotein (P29990 2492-3391 limits assumed): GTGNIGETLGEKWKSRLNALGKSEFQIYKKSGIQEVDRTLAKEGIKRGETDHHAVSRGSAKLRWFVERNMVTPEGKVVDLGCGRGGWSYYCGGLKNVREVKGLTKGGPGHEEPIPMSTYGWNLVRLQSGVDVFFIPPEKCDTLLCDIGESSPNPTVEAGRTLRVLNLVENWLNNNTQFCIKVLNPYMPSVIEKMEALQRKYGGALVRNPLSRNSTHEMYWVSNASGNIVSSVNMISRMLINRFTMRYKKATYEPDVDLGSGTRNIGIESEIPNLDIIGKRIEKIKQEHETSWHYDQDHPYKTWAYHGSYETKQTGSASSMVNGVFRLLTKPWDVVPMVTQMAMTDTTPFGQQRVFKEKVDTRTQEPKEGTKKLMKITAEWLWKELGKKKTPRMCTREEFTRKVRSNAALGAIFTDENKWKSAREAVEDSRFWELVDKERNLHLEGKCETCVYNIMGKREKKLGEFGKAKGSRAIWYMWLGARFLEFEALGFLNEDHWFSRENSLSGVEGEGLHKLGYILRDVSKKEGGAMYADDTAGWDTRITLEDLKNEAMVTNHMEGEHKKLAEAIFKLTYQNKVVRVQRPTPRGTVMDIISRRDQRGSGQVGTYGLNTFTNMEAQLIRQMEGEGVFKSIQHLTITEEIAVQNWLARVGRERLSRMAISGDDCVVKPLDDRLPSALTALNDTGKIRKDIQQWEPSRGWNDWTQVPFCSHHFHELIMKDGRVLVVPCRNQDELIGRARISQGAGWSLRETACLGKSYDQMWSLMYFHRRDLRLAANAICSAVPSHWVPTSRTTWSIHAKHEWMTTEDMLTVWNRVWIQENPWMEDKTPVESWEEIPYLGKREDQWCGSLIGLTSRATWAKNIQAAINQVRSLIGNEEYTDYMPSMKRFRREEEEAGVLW

[4] = molecular target: Tyrosyl-DNA phosphodiesterase 2 (Homo sapiens, UniProt O95551); assay: potency against TDP2 phosphodiesterase activity – biochemical, epi absorbance, IC50, dose response (AID 743297)
Sequence of Tyrosyl-DNA phosphodiesterase 2 (O95551 whole entry): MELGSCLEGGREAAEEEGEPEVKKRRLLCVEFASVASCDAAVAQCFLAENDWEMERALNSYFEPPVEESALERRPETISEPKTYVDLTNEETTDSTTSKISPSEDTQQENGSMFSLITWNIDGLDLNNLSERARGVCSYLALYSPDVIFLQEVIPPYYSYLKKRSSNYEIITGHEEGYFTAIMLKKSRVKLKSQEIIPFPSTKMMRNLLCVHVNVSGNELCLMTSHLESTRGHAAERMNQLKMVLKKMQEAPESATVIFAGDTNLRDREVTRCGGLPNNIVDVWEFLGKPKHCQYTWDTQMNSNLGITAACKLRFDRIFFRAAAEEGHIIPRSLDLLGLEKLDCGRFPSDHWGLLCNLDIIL

[5] = A2780 cell killing – plate reader, dry powder samples, cytotoxicity control, dose response (AID 743046); assay type: functional, cell-based
[6] = general cell-killing toxicity readout – plate reader, dry powder samples, cytotoxicity control for PAX8 inhibitor project, dose response (AID 743021); assay type: functional, cell-based
[7] = OVCAR-3 cell viability loss – plate reader, dry powder samples, PAX8 inhibitor project, dose response (AID 743044); assay type: functional, cell-based
Paired box protein Pax-8 = Paired box protein Pax-8 (Homo sapiens, UniProt Q06710); assay: PAX8 transcriptional activity inhibition in RMG-I – RMG-I cells, luciferase, cherry-pick, dose response (AID 687027); assay type: functional, cell-based;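 note: luciferase reporter driven by Pax8 target thyroperoxidase promoter measured by SteadyGlo luminescence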
Sequence of Paired box protein Pax-8 (Q06710 whole entry): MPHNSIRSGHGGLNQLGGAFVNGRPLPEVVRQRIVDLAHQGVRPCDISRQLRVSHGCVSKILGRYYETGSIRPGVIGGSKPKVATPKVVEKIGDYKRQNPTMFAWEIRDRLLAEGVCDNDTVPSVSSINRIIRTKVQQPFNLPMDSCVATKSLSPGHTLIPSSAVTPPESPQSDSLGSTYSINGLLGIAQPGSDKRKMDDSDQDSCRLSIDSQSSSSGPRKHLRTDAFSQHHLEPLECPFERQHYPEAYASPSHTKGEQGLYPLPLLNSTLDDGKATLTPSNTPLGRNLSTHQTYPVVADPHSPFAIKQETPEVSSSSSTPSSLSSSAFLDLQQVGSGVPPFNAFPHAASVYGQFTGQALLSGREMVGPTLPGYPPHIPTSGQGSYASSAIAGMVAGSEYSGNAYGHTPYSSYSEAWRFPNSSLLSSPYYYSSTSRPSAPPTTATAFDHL

[8] = toxicity toward immortalized ovarian surface epithelium – cell-based, plate reader, dry powder samples, cytotoxicity control for PAX8 inhibitor project, dose response (AID 743045); assay type: functional

Sequence of Protein disulfide-isomerase (P07237 whole entry): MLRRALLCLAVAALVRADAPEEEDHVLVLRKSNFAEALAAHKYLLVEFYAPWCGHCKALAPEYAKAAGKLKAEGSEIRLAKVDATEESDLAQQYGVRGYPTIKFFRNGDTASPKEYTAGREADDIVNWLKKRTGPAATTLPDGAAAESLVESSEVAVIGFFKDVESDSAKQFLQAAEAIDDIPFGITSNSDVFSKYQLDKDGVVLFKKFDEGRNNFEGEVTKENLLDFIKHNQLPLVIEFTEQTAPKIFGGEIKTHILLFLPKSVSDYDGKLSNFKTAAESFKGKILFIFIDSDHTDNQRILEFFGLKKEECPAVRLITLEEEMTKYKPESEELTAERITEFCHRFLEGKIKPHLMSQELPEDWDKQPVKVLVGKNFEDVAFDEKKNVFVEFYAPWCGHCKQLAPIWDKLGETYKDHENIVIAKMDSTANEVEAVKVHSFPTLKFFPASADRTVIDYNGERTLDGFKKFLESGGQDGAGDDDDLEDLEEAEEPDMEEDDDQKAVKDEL

CCOC(=O)C1(Cc2cccc(OC)c2)CCN(Cc2ccc(O)c(Cl)c2)CC1
AC50 [1]: > 30 µM (inactive)

Cc1ccc(C)c(-n2c3nc(=O)[nH]c(=O)c-3cc3cc([N+](=O)[O-])ccc32)c1
AC50 [2]: > 20 µM (inactive)
IC50 (Hexokinase HKDC1): 12.9 µM (active)
AC50 (Caspase-6): 20.7 µM (active)
CC50 (Vero): 14.5 µM (active)
AC50 [3]: 8.42 µM (active)
IC50 (Genome polyprotein): 14.9 µM (active)
IC50 [4]: > 128 µM (inactive)

Cc1ccc(S(=O)(=O)Nc2ccc3c(c2)CC(=O)N([C@@H](C)CO)C[C@H](C)[C@@H](CN(C)Cc2ccc(Oc4ccccc4)cc2)O3)cc1
AC50 [5]: 38.6 µM (active)
AC50 [6]: 55 µM (active)
AC50 [7]: 19.8 µM (active)
AC50 (Paired box protein Pax-8): 4.67 µM (active)
AC50 [8]: 26.3 µM (active)
